Assay results reported in a melting point compilation (Tetko et al.; mined from patent text by program, amines drawn as free bases though some values may be those of a salt).

Compound | melting point
O=C(Nc1ccc(F)cc1)NN1CC=CCC1 | 156 to 157 °C
C[C@H](C1CCCCC1)N1C(=O)c2c(F)c(F)c(F)c(F)c2C1=O | 147 to 148 °C
CCOC(=O)c1c(C(=O)Cc2c(CCNCCc3ccccc3)cc3c(c2OC)OCO3)ccc(OC)c1OC | 102 to 104 °C
CCN1C(=O)C(C)(C)C(=O)N(C)c2cc(CN(CCn3cc(C)c4occc4c3=O)Cc3cc(C)nn3C)ccc21 | 193 to 195 °C
N#Cc1ccc(-c2ccc(OCCN(O)C=O)cc2)cc1 | 142 to 145 °C
O[C@H]1CCCN[C@H]1c1ccccc1 (relative stereo) | 93 to 95 °C
O=C(Cn1nnc2cccnc21)Nc1ccc(-n2nc(C(F)(F)F)cc2C2CC2)cc1 | 206 to 209 °C
CN1C(=O)CCC2(C)c3ccc(C(=O)c4ccccc4Cl)cc3CCC12 (configuration not stated) | 105 to 115 °C
Cc1cc(CCCOc2c(C)cc(-c3noc(=N)[nH]3)cc2C)on1 | 175 to 183 °C
CCOC(=O)C1=C(COCc2nnn[nH]2)NC(C)=C(C(=O)OC)C1c1ccccc1Cl (configuration not stated) | 122 to 124 °C
O=C(Nc1ccc(Oc2ccnc(N3CCCC(O)C3)n2)c2ccccc12)c1cc(F)cc(N2CCCCC2)c1 (configuration not stated) | 93 to 95 °C
COc1cc2c(cc1Br)c1ccccc1n2CCC(C)CCCC(C)C (configuration not stated) | 55 °C
CN(C)C=C(C#N)C(=O)Nc1cc(F)ccc1F | 175 to 176 °C
C#CCOC(=O)c1ncn2c1CN(C)C(=O)c1cc(F)ccc1-2 | 220 to 222 °C
O=c1[nH]c2ncc(-c3ccc(O)cc3)nc2n1C1CCOCC1 | 382 to 383 °C
CC(=O)CCc1ccc2c(c1)Cc1ccccc1-2 | 99 to 101 °C
C=C1CC(Cn2cc(C)c(=O)[nH]c2=O)(c2ccc(Cl)cc2)OC1=O (configuration not stated) | 188 to 189 °C
CCOC(=O)CSC1=CC(=NS(=O)(=O)c2cccs2)c2ccccc2C1=O | 110 to 112 °C
CN1CNC(=S)N(c2ccc([N+](=O)[O-])cc2)C1 | 170 to 172 °C
O=C(CCCCCl)c1ccc2c(c1)Cc1cc(C(=O)CCCCCl)ccc1S2 | 85 to 86.5 °C
O=C1CC2OC(CBr)CN12 (configuration not stated) | 49 to 50 °C
CC(C)(C)c1ccc(C2CCCN3CCS(=O)(=O)N=C23)cc1 (configuration not stated) | 232 to 236 °C
CCOC(=O)c1ccc(NC(=O)N(CCc2ccccc2)c2ccc3c(c2)C(C)(C)CCC3(C)C)cc1 | 223 to 225 °C

Compound | melting point
COc1c(Cl)c(F)cc2c(=O)c(C(=O)O)cn(C3CC3)c12 | 195 to 199 °C
CCC(CC)c1ccc(Cl)c2nc(Nc3c(C)noc3C)n(CCCCO)c12 | 150 to 155 °C
O=C(O)CCc1cc(Br)c2c(c1)CCO2 | 117 to 118 °C
COc1ccc(S(=O)(=O)Nc2cccnc2Nc2ccc(O)c(C)c2)cc1 | 89 to 91 °C
CC(C)C(=O)Oc1ccc2c(c1Cl)Sc1ccccc1N2 | 155 °C
CCOc1ccc(C2=NN(CCCCOc3ccc(C4=NNC(=O)CC4C)cc3)C(=O)C3CC=CCC23)cc1OCC (configuration not stated) | 73 to 78 °C
CCOC(=O)Cc1sc(SCc2cc(O)nc(O)n2)nc1C | 203 to 204 °C
CCn1cc(C(=O)NC2CCCc3ccccc32)c(=O)c2cnc(N3CCCC3)nc21 (configuration not stated) | 284 to 286 °C
CN1CCN(c2cc3ncc(C#N)c(Nc4ccc(F)c(Cl)c4)c3cc2[N+](=O)[O-])CC1 | 240 to 246 °C
O=Cc1ccc2c3ccccc3c3ccccc3c2c1 | 160 to 162 °C
CC[C@@H]1N(c2ccc(C#N)c(Cl)c2C)C(=O)C[C@@]1(O)C1CC1 | 177 to 179 °C
CC(C)(C)c1cc(CC(C)(C)C2SCCS2)cc(C(C)(C)C)c1O | 119 °C
CCOc1cc(Cc2ccc(Cl)cc2Cl)nc(-c2ccc3c(n2)CCCC3)n1 | 98 to 100 °C
COC(=O)Cc1c(C)nn(-c2ccccc2)c1C | 63 to 64 °C
CCc1ccc(CC(C)(C)NCC(O)c2cc(OCc3ccccc3)cc3c2OCC(=O)N3)cc1 (configuration not stated) | 210 to 214 °C
COC(=O)C1=Cc2cc(Cl)ccc2OC1 | 106 to 109 °C
CC(C#CCOc1cccc(Oc2cccnc2)c1)N(O)C(N)=O (configuration not stated) | 131 to 132 °C
O=c1cc(-c2ccc(O)c(-c3cccs3)c2)oc2ncccc12 | 274 to 275 °C
CCOC(=O)N1CCN(C(=S)Cl)CC1 | 107 to 111 °C
Cc1cc2c(c(O)c1C=O)C(C)(C)CCC2(C)C | 91 to 92 °C
CCCNC(=O)C(Cc1ccc2c(c1)c(Cc1ccc(C(=O)OC)cc1OC)cn2CCC)C(C)C (configuration not stated) | 123 to 125 °C
COc1ccc(NCc2cc(OC)c(OC)c(OC)c2)cc1 | 73 to 74 °C

Other lines, results leading:

melting point | Compound
85 to 86 °C | Cc1oncc1C(=O)c1ccc(C(F)(F)F)cc1[N+](=O)[O-]
100 to 102 °C | O=C(O)C(=O)C=Cc1ccccc1F
256 to 259 °C | CN1C(=O)COc2c(C(=O)O)cc([N+](=O)[O-])cc21
167 to 169 °C | Nc1ncnc2c1ncn2C1CC(=CF)C(O)C1O (configuration not stated)
127 to 128 °C | N#CCCNC(=O)c1cc(F)cc(-c2cccc3cc(Cc4ccc(F)c(Cl)c4)sc23)c1
278 to 280 °C | Cn1c2ccc(Cl)cc2c2c(CO)nn(-c3ccccc3)c(=O)c21
165 to 167 °C | CC(C)(C)C1=CC(=Nc2ccc(CCC(=O)O)cc2)C=C(C(C)(C)C)C1=O
112 °C | O=C(CCCCCN1CCN(c2cccc3c2CCC3)CC1)N1Cc2ccccc2C1
205 °C | CCOC(=O)c1cn(CC)c2sc(C=O)cc2c1=O
78 to 80 °C | O=[N+]([O-])c1ccc(F)c(-c2cncnc2)c1F
140 to 141 °C | COCCCOc1ccc(/C=C(\OC)C(=O)O)c(Oc2ncc(C(F)(F)F)cc2Cl)c1
203 to 206 °C | NC(=O)COc1cccc(NC(=O)c2cc(-c3cccc(F)c3)ccc2F)c1
202 °C | CC(C)N(C(=O)COc1c(F)cc(-c2ccc(C(=O)O)cc2)cc1[N+](=O)[O-])C(C)C
55 to 56 °C | C=Cc1nc2cc(Br)ccc2o1
133 to 135 °C | CC(=O)Cc1ccc(CC2SC(=O)NC2=O)cc1 (configuration not stated)
244 °C | O=C1CC(c2cccc(-n3ccnc3)c2)=Nc2cc(N3C[C@@H](O)[C@@H](O)C3)c(-c3ccc(F)cc3)cc2N1
115 °C | O=C(CCCCCN1CCN(c2cccc3c2CCCC3)CC1)N1Cc2ccccc2C1
194 to 195 °C | CC(=O)ON=C1C(=O)Nc2cc(Cl)cc(Cl)c2C1=O
169 to 171 °C | Cc1ccncc1Cn1nnnc1-c1cc(Cl)ccc1Cl
183 to 185 °C | CCC(CC)Nc1n[nH]c(=O)c2c1ccn2-c1c(C)cc(C)cc1C
151 to 154 °C | CCOC1=NS(=O)(=O)c2ccc([N+](=O)[O-])cc21
275 °C | O=S(=O)(Nc1ncnc(Cl)c1-c1ccc(Cl)cc1)c1ccc(C(F)(F)F)cc1
143 °C | CCCCN1C(=O)NC(Cc2ccccc2)C1=O (configuration not stated)
214 to 217 °C | Oc1ccc(Sc2ccc(-c3ccc(Sc4ccc(O)cc4)cc3)cc2)cc1
121 to 123 °C | COc1cc(Cl)ccc1C(=O)NCCc1nc(-c2ccncn2)cc(=O)n1C
136 °C | Brc1cc2c(c(C34CC5CC(CC(C5)C3)C4)c1)OCO2
177 to 179 °C | CC(C)(C)OC(=O)Nc1ccc(NC(=O)C(=O)N2CCC(Cc3ccccc3)CC2)cc1
